Each structure is given as a SMILES string. Non-standard residues stand in square brackets, D forms with d. Residues, ends and D or L forms follow the SMILES beside them. ξ: configuration not given here. *: point of attachment. ξPhe(4-NO2) = NC(Cc1ccc([N+](=O)[O-])cc1)C(=O)O; Boc = CC(C)(C)OC(=O)*; OBn = c1ccc(CO*)cc1

What is called melting point is the temperature, or range, at which the solid turns liquid. In the case of `O=C(CCc1nc(-c2ccccn2)no1)NC1CCN(Cc2ccc(Cl)c(F)c2)CC1`, the melting point worked out at 132 °C. To `CCCCCN1C(=O)C2(COc3cc(F)c(Cl)cc32)c2ccccc21` (configuration not stated) belongs 74 to 76 °C; to `CC(Oc1ccc(-c2cccc(NC(N)=O)c2)cc1)C(O)CCc1cccnc1` (configuration not stated), 75 to 76 °C. Take `O=C(OCc1ccccc1)C1CCCc2c1c1ccccc1n2C(=O)c1ccc(Cl)cc1` (configuration not stated): the melting point lay in the range of 123 to 124 °C. As for `CC(=O)c1nc(-c2ccncc2)[nH]c1C`, the melting point lay in the range of 181 to 183 °C. In the case of `CCc1nn(CC2CC2)c2cc(C(=O)Nc3c(Cl)cncc3Cl)ccc12` it was 148 to 150 °C; in that of `Cc1ccccc1N1CCN(S(=O)(=O)c2ccc([N+](=O)[O-])cc2)CC1`, 176 to 178 °C; in that of `CC(=O)Nc1cccc(C(=O)Nc2cccc3cc(Br)cnc23)c1`, 198 to 202 °C. To `CN1CCN(c2ccc(-c3cnc4[nH]cc(C(=O)C5(C)CCCCC5)c4n3)cc2)CC1` belongs 225 to 226 °C; to `CN(C(=O)c1ccccc1OCC(=O)O)c1ccccc1`, 148 °C. `COc1c(N2CC(C)C(NC3CC3)C(C)C2)c(F)c(N)c2c(=O)c(C(=O)O)cn(C3CC3)c12` (configuration not stated) returned a melting point of 248 °C.

In turn, `CC(O)(CC(=O)O)c1ccc(-c2ccc(F)cc2)cc1` (configuration not stated) returned a melting point of 81 to 82 °C. Compound `OCc1ccc(-c2ccc(F)cn2)cc1` showed a melting point of 100 to 101 °C. To `COc1cc2nc(NC3CC3)nc(-c3cccc([N+](=O)[O-])c3)c2cc1OC` belongs 140 to 142 °C. In the case of `C[C@@H](NS(=O)(=O)c1ccc(-c2c(C#N)c3cc(Cl)ncc3n2C2CCC2)nc1)C(F)(F)F` it was 181 to 185 °C. In the case of `N#Cc1ncc(NCCO)nc1N1CCC(c2ccc(F)cc2)CC1` it was 155 to 158 °C; in that of `COC(=O)c1cccc(S(=O)(=O)N(C)C)c1CS(=O)(=O)NC(=O)Nc1nc(OC)cc(OC)n1`, 175 to 180 °C; in that of `CCn1c(=O)c2c(nc(/C=C/c3cccc(OC)c3)n2C)n(CC)c1=O`, 153 to 155 °C. Consider `N#CCCCCCCCn1c(-c2ccccc2)nc(-c2ccccc2)c1-c1ccccc1`, for which the melting point is 93 to 94 °C. In the case of `O=C(O)CC1CCCCc2c1c1cc(F)ccc1n2Cc1ccc(Cl)cc1` (configuration not stated) it was 138 to 139 °C; in that of `Cc1nc(-c2ccc(CCN3CCN(c4nsc5ccccc45)CC3)cc2)cs1`, 135 to 140 °C. `Cc1cc(COc2ccc(Oc3ccc(Cl)cc3)cc2)n(O)c(=O)c1` registered a melting point of 168 to 170 °C.

Consider `O=C(O)c1ccc(O)c(NC(=O)C(CS)Cc2ccccc2)c1` (configuration not stated), for which the melting point was 226 to 227 °C. Consider `CC(C)(C)OC(=O)NC(Cc1ccc([N+](=O)[O-])cc1)C(=O)NCC(=O)OCc1ccccc1` (configuration not stated) (Boc-[ξPhe(4-NO2)]-Gly-OBn), for which the melting point fell in the range of 115 to 118 °C. `OCC1OC(n2cnc3c(NC4CC=CCC4c4cccs4)ncnc32)C(O)C1O` (configuration not stated) gave a melting point of 105 to 110 °C. To `CCOC(=O)c1c(C)nc2scnc2c1N` belongs 118 to 119 °C; to `CCCc1nc2c(N)nc3cc(OCCOCCOc4ccc5c(c4)nc(N)c4nc(CCC)sc45)ccc3c2s1`, 186 to 189 °C; to `CCOC(=O)CCCCC(=O)c1c(C)n(C(=O)OC)c(=O)n1C(=O)OC`, 74 to 76 °C. `Cc1nc2n(C)nc(C)n2c(=O)c1CCCl` yielded a melting point of 140 °C. In the case of `C[C@@H](Nc1ncnc2[nH]c(-c3ccc(CN4CCN(C)CC4)cc3)cc12)c1ccccc1` it was 248 to 250 °C; in that of `COc1cc(Br)c(OC(=O)c2ccc(OC)c(F)c2)c(NC(=O)c2ccc(OC)c(F)c2)c1`, 184 to 186 °C.

With `Cc1ccccc1S(=O)(=O)NC(=O)n1sc(Cl)cc1=O`, the melting point lay in the range of 82 to 84 °C. In the case of `Oc1ccc(-c2ncc3ncc(-c4cccc(O)c4)cc3n2)cc1` it was 256 to 257 °C; in that of `CN1CCN(c2ccc([N+](=O)[O-])cc2)C1=O`, 207 to 208 °C. In the case of `Cc1nc2c(c(=O)[nH]1)CC(C)C2` (configuration not stated) it was 174 to 175 °C; in that of `O=C1C(=O)c2ccccc2C2=C1SCC1(CCN(CCCOc3ccc(Cl)cc3)CC1)O2`, 130 to 132 °C. The compound `Cc1cc2c(C(=O)C3=C(O)C4CCC(C4)C3=O)ccc(S(C)=O)c2o1` (configuration not stated) yielded a melting point of 243 to 244 °C. To `OCCc1ccc(Nc2ncc3c(n2)-c2ccccc2C(c2ccc(F)c(F)c2)C3)cc1` (configuration not stated) belongs 170 to 172 °C.

`O=C1SC2CCN(Cc3ccccc3Cl)CC2=C1O` (configuration not stated) had a melting point of 121 °C. To `CCC(C)Cn1c(=O)n(C)c(=O)c2c1nc(C)n2C(=O)OC` (configuration not stated) belongs 110 to 112 °C; to `CCCCC(O)(Cn1ccnc1)c1ccc(Cl)cc1Cl` (configuration not stated), 78 to 80 °C; to `CC1COc2c(N3CCC(n4cncn4)C3)c(F)cc3c(=O)c(C(=O)O)cn1c23` (single isomer, unassigned; (-)), 229 to 231 °C. In the case of `CCOC(=O)C(=CNc1ccn(Cc2ccco2)n1)C(=O)c1ccccc1` it was 75 to 77 °C; in that of `CCC(S)=C1SC(=S)N(c2ccc(Cl)cc2)C1=O`, 163 to 165 °C. In the case of `ON=Cc1ccc(OCc2csc(-c3ccccc3)n2)cc1` it was 175 to 179 °C; in that of `CC(C)c1cccc(C(C)C)c1NC(=O)CC(=O)N(Cc1ccccc1)C(C)C`, 102 °C; in that of `Cc1noc(NS(=O)(=O)c2sccc2-c2ccc3c(c2)OCO3)c1Br`, 183 to 186 °C. As to `c1cc(NC2=NCCN2)ccc1Cc1ccc(N2CCOCC2)cc1`, the melting point is 177 to 179 °C. To `NC(=O)c1ncn(Cc2ccc(Cl)c(C(F)(F)F)c2)c1N` belongs 230 to 232 °C; to `CS(=O)(=O)N(Cc1ccc(C(F)(F)F)cc1)CC(O)(Cn1cncn1)c1ccc(Cl)cc1Cl` (configuration not stated), 139 to 141 °C. To `COC(=O)C1Cc2c(ncn2Cc2ccc(N)c(C)c2)CN1C(=O)C(c1ccccc1)c1ccccc1` (configuration not stated) belongs 182 to 188 °C; to `NCC1Cc2cccc(-c3ccc(F)c(Cl)c3)c2O1` (configuration not stated), greater than 210 °C; to `O=C1Nc2cccc(C(F)(F)F)c2C(=O)N2CCC[C@@H]12`, 176 to 178 °C.

`NC1Cc2cccc3[nH]c(=O)n(c23)C1` (configuration not stated) had a melting point greater than 300 °C. In turn, `COc1cc(Nc2c(C#N)cnc3c(/C=C/CCN4CCOCC4)cccc23)c(Cl)cc1Cl` returned a melting point of 176 to 179 °C. For the compound `O=C(Cl)N1CC(Oc2ccc(F)cc2Cl)C1`, the melting point lay within 93 to 94 °C.

With `O=C(Cl)N1CC=C(c2ccccc2)CC1`, the melting point is 63 °C. In the case of `Cc1ccnc(N2CCN(CCCC3CNc4c(ccc(C)c4-c4cc(C)c(O)c(C)c4)O3)CC2)c1` (configuration not stated) it was 110 °C; in that of `CN1C(=O)C(C(=O)NCCCCCC(=O)O)S(=O)(=O)c2ccccc21` (configuration not stated), 132 to 134 °C; in that of `NS(=O)(=O)c1ccc(-c2cc3n(c2-c2ccc(F)cc2)CCC3)cc1`, 207 °C.

As for `CC(C)NC(=S)NS(=O)(=O)c1ccc(S(C)(=O)=O)cc1N`, the melting point was in the range of 151 to 153 °C. As for `CSc1nc(-c2ccncc2)cc(=O)n1C`, the melting point was 176 to 178 °C. To `CCCN1C(=O)c2ccccc2C1(SCc1ccccc1)c1ccc(Cl)cc1` (configuration not stated) belongs 132 to 133 °C.

Turning to `Cc1cn(C)cc(-c2ccccc2)c1=O`, the melting point fell in the range of 111 to 113 °C. In the case of `COc1ccc(OC)c(C(=S)N2CCOCC2)c1` it was 127 °C. In the case of `Cn1ccnc1Sc1ccc(F)cc1[N+](=O)[O-]` it was 123 to 126 °C; in that of `CC(C)(C(=O)O)c1ccsc1`, 78 to 80.5 °C; in that of `COc1cc(Nc2c(C#N)cnc3cc(-c4cnc(CN5CCN(C)CC5)n4C)sc23)c(Cl)cc1Cl`, 234 to 235 °C. In the case of `Cc1cc(C)cc(CC(=O)c2ccncc2)c1` it was 96 to 97 °C. `CC(C)(C)c1cccc(C[C@@H](NC(=O)c2ccc(F)c3ccccc23)[C@@H](O)c2cccc(Cl)c2)c1` (racemic): the melting point lay within 76 to 78 °C.

`O=C1CCC(C(=O)O)(c2ccc(Cl)cc2)CC1` yielded a melting point of 162 to 164 °C. In the case of `CC(C)n1cc(-c2nc(C#N)c(N)nc2-c2ccc(F)cc2)ccc1=O` it was 207 °C; in that of `N#CC1c2ccccc2C(Nc2ccc(Cl)cc2)=NN1C(=O)c1ccccc1` (configuration not stated), 201 to 202 °C; in that of `C[C@H]1CN(c2nc(-c3ccccc3)nc3ccccc23)[C@@H](C)CN1c1ccccn1` (relative stereo), 68 to 70 °C. `CCCCc1nc2c(N)nc3ccc(OCC(=O)N(CC)CC)cc3c2n1C` yielded a melting point of 186 to 188 °C. In turn, `CCN(CC)C(=O)CNc1cc(N)ccc1OC` registered a melting point of 111 °C. In the case of `C[C@H](NC(=O)c1c[nH]c2ncc(-c3cnn(C)c3)nc12)C(C)(C)C` it was 296 to 297 °C; in that of `O=S(=O)(CC(O)(CBr)c1ccccc1)c1ccccc1` (configuration not stated), 91 °C. Consider `O=C(Cc1ccc(OCc2cccs2)cc1)NC1(C(=O)O)Cc2ccc(-c3ccc(Cl)cc3)cc2C1` (configuration not stated), for which the melting point was 201 °C. In the case of `CC(C)n1nc(C#Cc2ccc(F)cc2)ccc1=O`, the melting point turned out to be 106 °C. The compound `O=C1CN2Cc3cc(OCCCC(=O)N(CCCCCCOC(=O)c4ccccc4)C4CCCCC4)ccc3N=C2N1` registered a melting point of 94 to 95 °C. In the case of `CCCc1ccc(NC(=O)c2ccccc2NCc2ccncc2)cc1C(F)(F)F` it was 134 to 135 °C.

In turn, `Oc1ccc2c(c1)CN(C1CC1)C2` returned a melting point of 170 °C. To `CCc1noc(-c2cc3c4cc(S(=O)(=O)N(C)C)ccc4n(CCCCl)c3cn2)n1` belongs 223 to 224 °C; to `O=C(NC1CCCCC1)Oc1ccccc1-c1ccccc1`, 119 to 121 °C; to `CCCCCS(=O)(=O)NC(=O)CCc1cc(OCc2nnc(C)o2)nn1Cc1ccc(Cl)cc1Cl`, 156 to 158 °C. In the case of `COc1ccc(C(C)(C)C)cc1NC(=O)Nc1ccc(C)cc1N` it was 165 to 166 °C.

Source of the values: a melting point compilation (Tetko et al.; mined from patent text by program, amines drawn as free bases though some values may be those of a salt).
